In patent US20070254907A1, “COMPOSITIONS AND METHODS FOR CONTROLLING INFESTATION” (HATCHTECH PTY LTD, priority 2003, published 2007):
Where two headings read alike, the source gives them in different places.

What was measured:
[1] = test system: third stage H. contortus larvae; assay: Survival and L3 to L4 moulting of third stage larvae; type: in vivo, Haemonchus contortus
Description: Third stage H. contortus larvae were exposed to varying concentrations of 5,5′-dimethyl-2,2′-dipyridyl and the effects on moulting from L3 to L4 examined. The larvae were either exsheathed (their L2 sheath was removed chemically) or unexsheathed (their L2 sheaths were intact). The larvae were exposed to varying concentrations of 5,5′-dimethyl-2,2′-dipyridyl added to their culture media of DMEM and the effects on larval survival monitored over time. Following a 30 minute incubation at 37° C., greater than 90% of the exsheathed larvae exposed to 1 and 0.5 mM of the compound appeared dead. […] By day six post exposure greater than 90% of the larvae appeared to have died in the treatment groups while the control larvae appeared healthy.

H. contortus eggs = assay: Egg hatching in Haemonchus contortus; type: in vivo
Description: In an attempt to improve control of H. contortus the effects of the compound 5,5′-dimethyl-2,2′-dipyridyl was examined on H. contortus eggs. Eggs were recovered from the faeces of infected sheep using a standard sucrose floatation method. The eggs were corrected to a density of approximately 2,500 eggs per mL and were then exposed to varying concentrations of compound and incubated for 48 hours at 25° C. The eggs were then examined to determine the ovicidal efficacy of the compound in comparison to untreated control and a solvent only control.
In addition, the ovicidal efficacy of the compound 2-acetyl-1-tetralone was examined against H. contortus (FIG. 10). The same protocol was used as described for 5,5′-dimethyl-2,2′-dipyridyl.

head lice eggs = assay: Head lice egg hatching with formulated compound; type: in vivo; settings: 20 mM formulation
Description: Gravid female lice were permitted to lay eggs. The eggs were counted, inspected under a light microscope and all eggs that appeared undamaged were allocated to one of two treatment groups. One group was exposed to 5′-dimethyl-2,2′-dipyridyl in a formulation, while the second group was exposed to the formulation only. The protocol was as follows:
Treatments: 5'-dimethyl-2,2'dipyridyl (20mM) n=10
Vehicle control only n=10
Exposure time: 10 minutes
Wash time: 1 minute @˜37° C.
Incubation: All eggs were placed at 31° C. in a humid incubator and monitored for signs of development specifically of the eye and subsequent hatching, see Table 21.

body louse eggs = assay: Standard body louse egg assay with formulated compound; type: in vivo, body lice; settings: 10 minute exposure; for % of eggs that hatched following treatment: formulated
Description: 5,5′-dimethyl-2,2′-dipyridyl was formulated and evaluated in the standard body louse egg assay. Body louse eggs (15-30 per replicate) of varying ages were exposed for 10 minute to the test solutions or a placebo or left untreated, followed by a 1 minute water wash and blotted dry. The eggs were then incubated at 30° C. over the following 10 days post treatment and the percentage of eggs that successfully hatched was determined (Table 20).

head lice egg = assay: Head lice egg hatching, time course; type: in vivo, Pediculus humanus capitus; settings: 10 mM; for inhibition at 10000 µM: Pediculus humanus, 10 minutes, read-out: Percent inhibition of egg hatching relative to the control
Description: Tests were carried out to determine if metal chelating agent and metalloprotease inhibitor 1,10-phenanthroline could inhibit head lice egg (Pediculus humanus capitus) hatching as opposed to body lice. Head lice eggs were obtained by placing groups of both 1-2 adult male and 6-8 adult female head lice in separate wells in a 24 well petri dish containing cotton cloth. The petri dish was transferred to a humid incubator at 32° C., 70% RH for 12 hours to permit the female lice to lay their eggs. After 12 hours, all adult lice were removed from the petri dish wells and a series of time-course experiments conducted. A group of eggs (24 hr old) was treated for 10 minutes with 200 μL of a 10 mM solution of 1,10-phenanthroline. A control (ie no inhibitor treatment) group of eggs was also included. The eggs were removed from the inhibitor, blotted dry on tissue paper, placed at 32° C., 70% RH and left to hatch. A second group of eggs, (48 hours old) were treated as previously described and also left to hatch. This process was repeated at 24 hour intervals on head lice eggs up to 120 hours post laying. This method of assaying inhibitors more closely mirrors the field situation where lice eggs will be at various stages of development on the head and permits the inhibitory effects to be observed on these different stages of the parasite.

In the case of `Cc1ccc(-c2ccc(C)cn2)nc1` [5,5′-dimethyl-2,2′-dipyridyl], the “appearance of unexsheathed larvae” value ([1]; 10 μM, up to 6 days post exposure) is reported as “larvae appeared normal”, the “exsheathed larvae that appeared dead” value ([1]; 1 and 0.5 mM in DMEM, 30 minute incubation at 37° C.) is reported as “greater than 90%” and the “unexsheathed larvae that appeared to have died” value ([1]; day six post exposure, treatment groups) is reported as “greater than 90%”. For the same molecule, the “effects on unexsheathed larvae compared to control larvae” value ([1]; up to 3 days post exposure) was “no adverse effects were observed”, the “ovicidal efficacy on H. contortus eggs” value (H. contortus eggs; 180 and 18 ug/mL (1 and 0.1 mM), 48 hours at 25° C. (FIG. 8)) was “potently ovicidal” and the “effectiveness at inhibiting H. contortus egg hatching compared to ivermectin” value (H. contortus eggs; FIG. 8 versus FIG. 9) was about 10 ×. The “egg hatching in head lice” value (head lice eggs; 10 minutes, 1 minute wash) was “significantly suppress egg hatching”, the “eggs that failed to hatch (did not develop)” value (head lice eggs; n=10 eggs) was 80% and the “ovicidal activity of formulated compound on body louse eggs” value (body louse eggs; 1 minute water wash) was “strong dose dependency of ovicidal activity”. For the same molecule, the “% of eggs that hatched following treatment” value (body louse eggs; 1 mM, age of eggs 24 hr) was 91%, the “% of eggs that hatched following treatment” value (body louse eggs; 1 mM, age of eggs 48 hr) was 80% and the “% of eggs that hatched following treatment” value (body louse eggs; 1 mM, age of eggs 96 hr) was 82%. The “% of eggs that hatched following treatment” value (body louse eggs; 1 mM, age of eggs 120 hr) was 86%, the “% of eggs that hatched following treatment” value (body louse eggs; 5 mM, age of eggs 24 hr) was 21% and the “% of eggs that hatched following treatment” value (body louse eggs; 5 mM, age of eggs 48 hr) was 58%. For the same molecule, the “% of eggs that hatched following treatment” value (body louse eggs; 5 mM, age of eggs 96 hr) was 64%, the “% of eggs that hatched following treatment” value (body louse eggs; 5 mM, age of eggs 120 hr) was 65% and the “% of eggs that hatched following treatment” value (body louse eggs; 10 mM, age of eggs 24 hr) was 4%. The “% of eggs that hatched following treatment” value (body louse eggs; 10 mM, age of eggs 48 hr) was 7%, the “% of eggs that hatched following treatment” value (body louse eggs; 10 mM, age of eggs 96 hr) was 10% and the “% of eggs that hatched following treatment” value (body louse eggs; 10 mM, age of eggs 120 hr) was 12%. For the same molecule, the “% of eggs that hatched following treatment” value (body louse eggs; 30 mM, age of eggs 24 hr) was 0%, the “% of eggs that hatched following treatment” value (body louse eggs; 30 mM, age of eggs 48 hr) was 0% and the “% of eggs that hatched following treatment” value (body louse eggs; 30 mM, age of eggs 96 hr) was 0%. The “% of eggs that hatched following treatment” value (body louse eggs; 30 mM, age of eggs 120 hr) was 0%.
With `c1cnc2c(c1)ccc1cccnc12` [1,10-phenanthroline, reference compound] the “inhibition of egg hatching in head lice” value (head lice egg) was “significantly inhibit egg hatching in head lice”, the inhibition at 10000 µM (head lice egg; treated day 1 post laying) was 100% and the inhibition at 10000 µM (head lice egg; treated day 2 post laying) was 87%. It also gave an inhibition at 10000 µM (head lice egg; treated day 3 post laying) of 88%, an inhibition at 10000 µM (head lice egg; treated day 4 post laying) of 100% and an inhibition at 10000 µM (head lice egg; treated day 5 post laying) of 100%.
